“And” between values parts separate entries of the source, which are not always exact repeats. Identical values can stand only once. Marks after values point to notes of the source that are not given here.
Tests used:
[1] = test system: thromboxane A2 and prostacycline; assay: Prostacycline to thromboxane ratio in mice with Lewis pulmonary carcinoma; format: in vivo, C57B1 male mice; conditions: mice with transplanted Lewis carcinoma, day 24; 500 µg/kg per day in drinking water
Procedure: Experiments were carried out on C57B1 male mice weighing 18-20 g. Lewis pulmonary carcinoma (generation 3) transplantation was performed according to a conventional technique [Experimental estrimation of antitumor drugs in the U.S.S.R. and the U.S.A. edited by E.P.Sof'ina, A.B.Syrkin, A.Goldin, A.Kline. Moscow, Meditsina publishers (1980), 296 pp.]. Each group included 8 animals. Administration of compound III at a dose 500 µg/kg per day in drinking water was commenced since 24 hours after tumor transplantation.
Determination of thromboxane A2 and prostacycline was done according to the technique described in example 35. By day 24 of experiments animals were sacrified and the test parameters were determined.
Groups of animals: • Group 1 - intact control. • Group 2 - mice with transplanted Lewis carcinoma. • Group 3 - mice with transplanted Lewis carcinoma + compound III.

[2] = test system: white mongrel male rats; assay: Paw edema induced by Freund's complete adjuvant; format: in vivo
Procedure: Experiment was carried out on white mongrel male rats weghing 280-300 g. The model of paw edema induced by Freund's complete adjuvant (FCA), was reproduced according to the method of Ezamuzie and Umezurike [Ezamuzie Ch., Umezurike C.C. Effect of histamine H2-receptor antagonists on acute inflammatory of the rat paw oedema. J. Pharmacol. (1989), Vol. 41, pp. 261-265]. Paw volume measurement was done using a plethysmograph (Ugo Basile). Inhibition of inflammatory reaction expressed in percent, as calculated according to the formula: 100-[(R-L(exper.))/(L):(R-L(control))/(L)x100](%) [formula] where R - the right paw volume, L - the left paw volume.
Each group included 10 animals.
Group of animals: • Group 1 - control, animals were administered 0.5 ml of 1% starch solution. • Group 2 - animals were administered the compound XLVIII. • Group 3 - animals were administered the compound III. • Group 4 - animals were administered Naproxene.

[3] = test system: mongrel rats; assay: Antiischemic activity: necrosis zone after coronary artery occlusion (myocardial infarction); format: in vivo; conditions: 4 hours after coronary artery occlusion, oral 4 days
Procedure: Antiischemic activity of a compound was assessed by an integral test, i.e. effect on the necrosis zone area following reproduction of myocardial infarction in mongrel rats weighing 250-300 g.
Effect of a compound on the necrosis zone area was studied in 4 hours after arterial occlusion in rats using a differential indicator method [Sernov L.N., Gatsura V.V. A differential indicator method for determinig ischemic and necrotic zone in experimental myocardial infarction in rats. Bulletin of Experimental Biology and Medicine (1989), No 5, pp. 534-535]. All the painful manipulations were performed on animals under Ethaminal anesthesia (Ethaminal - 40 mg/kg intraperitoneally). Experiment was carried out in 15 hours after the last compound administration. Each group included 8 animals.
Groups of animals: • Group 1 - intact control -administration of normal saline four times. • Groups 2 and 3 - oral administration of the compound III at doses respectively 50 and 500 µg/kg for 4 days. • Group 4 - single intraperitoneal administration of Nicorandil at a dose 1 mg/kg immediately after occlusion.

[4] = test system: Wistar rats; assay: Non-infectious pulmonary granulomatosis model (aerosol Sephadex A-25); conditions: intragastral 50 mg/kg once daily
Procedure: Antiinflammatory and immunomodulating effect of the compound III with intragastral administration was studied on the non-infectious pulmonary granulomatosis model.
20 female 4 months old Wistar rats weighing 200-220 g were used in exepriment.
Sephadex A-25 at a dose 5 mg per 1 kg of body mass, as administered to rats under ether anesthesia using an original dosing device for inhalation administering dry powders manufactured at the Scientific-Research Institute for Medical Instrument-Making. […] Compound III was administered intragastrally using a gastric probe at a dose 50 mg per 1 kg of body mass and immediately after that, single aerosol administration of Sephadex A-25 was performed according to the earlier described technique. Then compound III was administered intragastrally once daily for 6 days at a dose 50 mg/kg of body mass in the form of water solution. Rats were examined by day 7 after commencement of administering compound III and Sephadex A-25.
Bronchoalveolar lavage was obtained under Hexenal anesthesia. Cytosis, i.e. absolute number of cells in 1 ml was determined in the bronchoalveolar lavage fluid. Endopulmonal cytogram (in percent) was calculated in the smears stained according to Romanovsky-Gimza. […] Histological examination of lungs stained with hematoxylin and eosine was performed. Volume density of alveolitis and emphysema was determined using the point count method.

[5] = test system: Lewis pulmonary carcinoma (LLC); assay: LLC metastasizing with surgical resection of the primary tumor node, alone and with Cyclophosphane; format: in vivo, C57BL/6 female mice; conditions: day 29
Procedure: An important property of the compounds is their ability to manifest pharmacological activity on the model with resection of the primary tumor node and not to lower therapeutic efficacy of respective antitumor drugs. […] Surgical resection of the primary tumor node was performed by day 13 following tumor transplantation. The test anitumor compounds were administered according to two dosage regimens:
Dosage regimen 1 - animals were administered compound III from day 1 till day 13 of experiment at a dose 500 µg/kg (group 1); Cyclophosphane was administered intraperitoneally two times before operation with 96 hour interval at a dose 100 µg/kg (group 2); combined administration of compound III and Cyclophosphane was similar to administration of substances in groups 1 and 2 (group 3). Number of metastases was calculated by day 29 of experiment;
Dosage regimen 2 - animals were administered compound III from day 14 of experiment (commencement of administration 24 hours post operation) till day 28 (group 4); Cyclophosphane was administered twice post operation with 96 hour interval at a dose 100 µg/kg (group 5); combined administration of compound III and Cyclophosphane similar to administration of substances in groups 4 and 5 (group 6). Antimetastatic efficacy of the drugs was considered by day 29 of experiment.

[6] = test system: encephalomyocarditis virus; assay: Protection of mice against encephalomyocarditis virus infection; format: in vivo; conditions: 100 LD50 virus, once intraperitoneally 24 hours after infection, 30 µg/kg
Procedure: Studies ere carried out on mongrel mice of both sexes with initial body mass 10-11 g. The control and experimental groups included 30 animals each. Compound XLIV and the reference drug interferon inducer Ridostine were administered once intraperitoneally 24 hours after infection of mice with encephalomyocarditis virus at doses 30 µg/kg and 5.0 mg/kg, respectively. Encephalomyocarditis virus was administered at a dose 100 LD50. Antiviral activity was determined by change in mean lifetime (MLT) of mice and by the degree of protection against lethal viral infection.

[7] = test system: hepatic P-450 cytochrome system; assay: Hexenal sleep duration in guinea pigs; format: in vivo; conditions: oral 3 days, 50 µg/kg, control 24.76 ± 3.23
Procedure: Change in Hexenal sleep (HS) duration is the in vivo measurable index of hepatic P-450 cytochrome system condition.
Studies were carried out on male mice of the lines BALB/c*h75, C57B1/6, CBA, DBA/2, first generation CBF1 and BDF1 hybrides, with initial mass 18-20 g, each group including 10 mice; and on mongrel male guinea pigs with initial mass 250-300 g, each group including 24 animals. All the test compounds (from II to LII) were administered orally in drinking water and for three days at doses 50 and 500 µg/kg. Hexenal hydrochloride at a dose […] of animal mass was administered 24 hours after the last drug administration, except for line BALB/c*h75 mice, which were administered Hexenal at a dose 60 µg/kg at the same terms, and guinea pigs for which Hexenal dose was 30 µg/kg. HS duration was determined in minutes.

[8] = Wistar rats, day 7 after aerosol Sephadex A-25
[9] = regimen 1, prior to operation: day 1 till day 13, 500 µg/kg
[10] = regimen 2, post operation: day 14 till day 28

With `O=C(O)CCCC(=O)NCCc1c[nH]cn1` [compound III, N-GLUTARYLHISTAMINE] as the molecule, how does the Prostacycline [1] read?
Its Prostacycline is 5.80 ± 0.75*^2.

What about the “Ratio 6-keto-PGF1α :TXB2” value [1] of the same molecule?
Its value is 0.80 ± 0.11*^2.

And the “Thromboxane A2” value [1]?
Its value is 7.23 ± 0.18*^C.

What about the “Volume of paws (conditional units) Right” value [2] of the same molecule?
Its value is 1.85 ± 0.62 conditional units.

And the “Volume of paws (conditional units) left” value [2]?
The value was 1.25 ± 0.34 conditional units.

What about the “Ischemia zone, percent to the total myocardial mass” value ([3]; 50 µg/kg) of the same molecule?
The value was 27,2 ± 2,8%.

And the “Necrosis zone percent to myocardial zone” value ([3]; 50 µg/kg)?
The value was 56,8 ± 2,7%.

And the “Necrosis zone, percent to the total myocardial mass” value ([3]; 50 µg/kg)?
Its value is 15,4 ± 1,7%.

And the “Ischemia zone, percent to the total myocardial mass” value ([3]; 500 µg/kg)?
Its value is 31,1 ± 3,1%.

What about the “Necrosis zone percent to myocardial zone” value ([3]; 500 µg/kg) of the same molecule?
Its value is 54,3 ± 2,1%.

What about the “Necrosis zone, percent to the total myocardial mass” value ([3]; 500 µg/kg) of the same molecule?
Its value is 17,8 ± 1,0%.

What about the “Volume density in percent: Alveolitis” value [4, 8] of the same molecule?
The value was 3.8±0.1% and 3.8 ± 1.0%.

What about the “Volume density in percent: Emphysema” value [4, 8] of the same molecule?
Its value is 11.2±3.2%.

What about the “Cytosis (absolute number of cells in 1 ml)” value ([4]; bronchoalveolar lavage, day 7) of the same molecule?
Its value is 0.169 ± 0.054.

What about the “Endopulmonary cytogram in percent: Lymphocytes” value ([4]; bronchoalveolar lavage, day 7) of the same molecule?
Its value is 7.6 ± 1.5%.

What about the “Endopulmonary cytogram in percent: Macrophages” value ([4]; bronchoalveolar lavage, day 7) of the same molecule?
Its value is 75.2 ± 4.5%.

What about the “Endopulmonary cytogram in percent: Neutrophils” value ([4]; bronchoalveolar lavage, day 7) of the same molecule?
Its value is 16.8 ± 2.6%.

And the “Volume density of lymphoid follicles in percent” value ([4]; lymphoid tissue associated with bronchi, day 7)?
The value was 34.7 ± 10.3%.

What about the “Mean number of metastases” value [5, 9] of the same molecule?
The value was 32.0 ± 11.8.

What about the Metastasizing inhibition percent [5, 9] of the same molecule?
Its Metastasizing inhibition percent is 8.0%.

And the “Metastasizing rate (%)” value [5, 9]?
Its value is 100%.

And the “Mean number of metastases” value [5, 10]?
Its value is 28.6 ± 8.5.

And the Metastasizing inhibition percent [5, 10]?
The Metastasizing inhibition percent was 22.9%.

And the “Metastasizing rate (%)” value [5, 10]?
The value was 100%.

Which “MLT, days” value [6] does the source give for γ-L-glutamylhistamine [compound XLIV] here?
The value was 12.5* days.

What about the “Protection degree, percent” value [6] of the same molecule?
The value was 17.0%.

And the “Survival rate, percent” value [6]?
The value was 30.3* percent.

And the “Hexenal sleep duration (minutes)” value [7]?
Its value is 13.48 ± 1.02* minutes.

From patent EP2229935A1, “Peptide derivatives or pharmaceutically acceptable salts thereof, method for producing the same, use of said derivatives and pharmaceutical composition” (Nebolsin, Vladimir Evgenievich, priority 1997, dated 1999)
